Data reported in patent US12083165B2, “Thymosin alpha 1 for use in treatment of cystic fibrosis” (SciClone Pharmaceuticals International (SG) PTE. LTD., priority 2015, dated 2024).

Key:
[1] = biological target: ΔF508 CFTR (Homo sapiens, UniProt P13569, DEL508-508); assay: Chloride permeability by SPQ fluorescence assay upon forskolin stimulation, HBE cells from CF patients; type: cell-based
Experimental: Cells. Cell Lines and Cell Culture—Human bronchial epithelial (HBE) cells, homozygous for the […] mutation and its isogenic wild-type were obtained from lung transplants (CF patients) or lung resections (non-CF patients) (kindly provided by L J Galietta within the Italian Cystic Fibrosis Foundation). Cells were maintained at 37° C. in a humidified incubator in an atmosphere containing 5% CO2, and the experiments were done 5 days after plating (21, 22). Stable lentiviral-based transduction of the parental CFBE41o− cells (ΔF508/ΔF508), originally immortalized and characterized by Dr. D. Gruenert and co-workers (32) with either WT-CFTR or ΔF508-CFTR, was performed by Tranzyme, Inc. (Birmingham, AL). […]
The activity of Tα1, either alone or in combination with ivacaftor, has been comparatively assessed with that of lumacaftor on CFBE41o− cells expressing ΔF508 CFTR and on HBE cells from CF patients. To this purpose, cells were treated with Tα1 (100 ng/ml), VX-770 (1 μM) or VX-809 (3 μM) alone or in combination for 24 hours and assessed for CFTR protein expression and function. […] In terms of ion channel activity, Tα1, either alone or in combination with ivacaftor, increased the chloride permeability of ΔF508 CFTR cells between 60 to 70% relative to control (considering WT control as 100% reference value)(B, assessed by a fluorescence assay upon stimulation with fosforkolin, Fsk). […]

[2] = system: TMEM16A; assay: TMEM16A mRNA expression by RT-PCR in HBE cells from control or CF patients; type: cell-based, human; conditions: 100 ng/ml
Experimental: Reverse transcriptase-polymerase chain reaction (RT-PCR). Total RNA extraction and synthesis and PCR of cDNA were done on total lung cells as described (21, 22). Amplification efficiencies were validated and normalized against Gapdh. The thermal profile for SYBR Green real-time PCR was at 95° C. for 3 min, followed by 40 cycles of denaturation for 30 s at 95° C. and an annealing/extension step of 30 s at 60° C. Each data point was examined for integrity by analysis of the amplification plot. The mRNA-normalized data were expressed as relative mRNA in treated cells compared to that of unstimulated cells.
Pharmacological correction of the ion transport defect by targeting of mutant CFTR, or alternative ion channels that may compensate for CFTR dysfunction, has long been considered as an attractive approach to a causal therapy of CF (37). […] Activation of TMEM16A with pharmacological agents could circumvent the primary defect in CF, irrespective of CFTR genotype (40). […] Based upon these findings, whether TMEM16A expression was induced by Tα1 on HBE cells from control or CF patients has been evaluated. To this purpose cells have been exposed to 100 ng/ml of Tα1 up to 24 hours and assessed TMEM16A mRNA expression by RT-PCR on total RNA from cells.

ΔF508 CFTR, sequence (P13569 with tags, fused parts or gaps DEL508-508): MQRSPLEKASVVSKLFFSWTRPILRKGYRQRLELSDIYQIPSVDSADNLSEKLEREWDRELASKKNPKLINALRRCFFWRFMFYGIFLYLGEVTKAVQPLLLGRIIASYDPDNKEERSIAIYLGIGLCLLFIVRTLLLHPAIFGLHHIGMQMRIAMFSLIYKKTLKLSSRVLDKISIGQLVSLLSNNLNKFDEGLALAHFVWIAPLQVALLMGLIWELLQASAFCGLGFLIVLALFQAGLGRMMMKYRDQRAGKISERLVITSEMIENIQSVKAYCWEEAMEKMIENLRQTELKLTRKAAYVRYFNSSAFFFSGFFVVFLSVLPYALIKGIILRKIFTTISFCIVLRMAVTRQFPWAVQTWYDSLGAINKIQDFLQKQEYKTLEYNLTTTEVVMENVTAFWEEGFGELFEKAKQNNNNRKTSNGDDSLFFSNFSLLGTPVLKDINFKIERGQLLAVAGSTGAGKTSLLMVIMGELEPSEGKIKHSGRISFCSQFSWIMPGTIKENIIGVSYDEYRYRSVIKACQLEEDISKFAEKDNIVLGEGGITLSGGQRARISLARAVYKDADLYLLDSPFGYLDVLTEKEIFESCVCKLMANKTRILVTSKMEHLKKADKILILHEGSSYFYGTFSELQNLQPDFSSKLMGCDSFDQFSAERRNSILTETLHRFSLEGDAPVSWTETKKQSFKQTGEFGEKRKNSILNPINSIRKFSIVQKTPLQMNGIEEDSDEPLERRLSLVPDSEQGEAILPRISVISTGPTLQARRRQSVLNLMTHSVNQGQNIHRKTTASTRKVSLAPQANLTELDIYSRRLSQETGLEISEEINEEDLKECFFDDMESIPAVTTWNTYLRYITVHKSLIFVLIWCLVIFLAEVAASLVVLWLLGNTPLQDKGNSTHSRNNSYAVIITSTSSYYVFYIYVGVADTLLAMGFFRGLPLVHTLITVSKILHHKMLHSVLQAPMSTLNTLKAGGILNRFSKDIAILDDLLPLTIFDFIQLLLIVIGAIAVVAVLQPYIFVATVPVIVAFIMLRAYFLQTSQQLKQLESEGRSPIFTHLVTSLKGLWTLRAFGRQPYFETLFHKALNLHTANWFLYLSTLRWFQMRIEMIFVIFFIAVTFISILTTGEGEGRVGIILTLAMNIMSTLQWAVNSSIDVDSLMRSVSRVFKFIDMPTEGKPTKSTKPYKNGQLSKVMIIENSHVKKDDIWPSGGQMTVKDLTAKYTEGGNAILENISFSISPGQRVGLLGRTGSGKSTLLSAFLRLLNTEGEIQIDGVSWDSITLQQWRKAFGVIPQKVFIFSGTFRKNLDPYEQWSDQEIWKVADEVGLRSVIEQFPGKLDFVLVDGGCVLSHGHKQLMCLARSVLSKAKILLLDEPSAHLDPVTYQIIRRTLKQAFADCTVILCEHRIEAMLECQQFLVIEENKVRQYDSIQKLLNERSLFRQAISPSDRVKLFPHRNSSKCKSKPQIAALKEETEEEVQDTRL

Ac-Ser-Asp-Ala-Ala-Val-Asp-Thr-Ser-Ser-Glu-Ile-Thr-Thr-Lys-Asp-Leu-Lys-Glu-Lys-Lys-Glu-Val-Val-Glu-Glu-Ala-Glu-Asn-O (Ac-SDAAVDTSSEITTKDLKEKKEVVEEAEN-OH; not fully specified; printed as Ac-Ser-Asp-Ala-Ala-Val-Asp-Thr-Ser-Ser-Glu-Ile-Thr-Thr-Lys-Asp-Leu-Lys-Glu-Lys-Lys-Glu-Val-Val-Glu-Glu-Ala-Glu-Asn-O; listed as Homo sapiens) [Tα1, naturally occurring polypeptide of 28 amino acid; supplied as purified sterile, lyophilized, acetylated polypeptide]
chloride permeability of ΔF508 CFTR cells relative to control (WT control as 100%) ([1]; 100 ng/ml Tα1 for 24 hours, forskolin stimulation): approximately 70% | ion channel activity compared to lumacaftor ([1]; 24 hours): similar | TMEM16A expression ([2]; CF HBE cells, after 4 hours): markedly increased | TMEM16A expression ([2]; CF HBE cells, at 24 hours): remains elevated | TMEM16A expression ([2]; control HBE cells, after 4 hours): markedly increased | TMEM16A expression ([2]; control HBE cells, at 24 hours): returned to baseline levels
